Consider 21 compounds from ChEMBL document CHEMBL1150262, “Ring size of somatostatin analogues (ODT-8) modulates receptor selectivity and binding affinity” (J Med Chem, 2008).

In test [1] the target is Somatostatin receptor type 3 (Homo sapiens, UniProt P32745). In words: Displacement of [125I]-[Leu8, DTrp22, Tyr25]SRIF-28 from human cloned sst3 receptor expressed in CCL39 cells. Format: cell-based. Background: Loss of bound radioactivity is the signal in a displacement assay; it reports binding, not function.
Sequence of Somatostatin receptor type 3 (P32745 whole entry): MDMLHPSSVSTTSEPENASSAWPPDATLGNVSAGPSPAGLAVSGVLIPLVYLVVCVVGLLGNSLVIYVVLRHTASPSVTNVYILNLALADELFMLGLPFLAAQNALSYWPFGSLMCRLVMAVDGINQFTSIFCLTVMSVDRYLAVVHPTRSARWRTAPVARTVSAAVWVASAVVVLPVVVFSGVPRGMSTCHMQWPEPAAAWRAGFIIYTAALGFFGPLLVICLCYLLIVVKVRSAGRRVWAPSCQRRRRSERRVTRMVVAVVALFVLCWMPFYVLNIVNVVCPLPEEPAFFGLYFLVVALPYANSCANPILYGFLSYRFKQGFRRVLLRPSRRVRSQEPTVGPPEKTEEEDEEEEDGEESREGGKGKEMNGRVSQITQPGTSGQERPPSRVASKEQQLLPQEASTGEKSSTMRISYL
Test [2] deals with Somatostatin receptor type 5 (Homo sapiens, UniProt P35346). In words: Displacement of [125I]-[Leu8, DTrp22, Tyr25]SRIF-28 from human cloned sst5 receptor expressed in CHOK1 cells. Format: cell-based, CHO-K1.
Sequence of Somatostatin receptor type 5 (P35346 whole entry): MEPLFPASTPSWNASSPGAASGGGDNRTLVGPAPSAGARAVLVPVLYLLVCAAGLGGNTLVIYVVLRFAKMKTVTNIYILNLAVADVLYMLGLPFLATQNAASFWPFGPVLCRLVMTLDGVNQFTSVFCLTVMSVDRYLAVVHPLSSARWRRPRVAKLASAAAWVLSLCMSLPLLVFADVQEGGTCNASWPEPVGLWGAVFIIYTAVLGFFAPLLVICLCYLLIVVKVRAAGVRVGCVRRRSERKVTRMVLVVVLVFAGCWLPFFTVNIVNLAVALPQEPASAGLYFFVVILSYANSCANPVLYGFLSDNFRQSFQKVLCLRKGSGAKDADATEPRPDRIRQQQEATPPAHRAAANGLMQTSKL
Test [3] deals with Somatostatin receptor type 2 (Homo sapiens, UniProt P30874). Put plainly: Displacement of [125I]-[Leu8, DTrp22, Tyr25]SRIF-28 from human cloned sst2 receptor expressed in CCL39 cells. The format is cell-based.
Sequence of Somatostatin receptor type 2 (P30874 whole entry): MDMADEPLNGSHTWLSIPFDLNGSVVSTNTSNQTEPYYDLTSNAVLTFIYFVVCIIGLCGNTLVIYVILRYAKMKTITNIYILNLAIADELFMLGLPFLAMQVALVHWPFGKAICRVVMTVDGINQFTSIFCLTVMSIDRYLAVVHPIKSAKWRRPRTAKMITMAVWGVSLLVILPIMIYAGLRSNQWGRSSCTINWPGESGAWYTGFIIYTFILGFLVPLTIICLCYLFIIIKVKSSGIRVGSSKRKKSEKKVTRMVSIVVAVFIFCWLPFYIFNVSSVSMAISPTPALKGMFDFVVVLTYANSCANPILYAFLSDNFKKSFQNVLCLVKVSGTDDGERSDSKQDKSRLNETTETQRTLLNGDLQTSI
The target of test [4] is Somatostatin receptor type 1 (Homo sapiens, UniProt P30872). Put plainly: Displacement of [125I]-[Leu8, DTrp22, Tyr25]SRIF28 from human cloned sst1 receptor.
Sequence of Somatostatin receptor type 1 (P30872 whole entry): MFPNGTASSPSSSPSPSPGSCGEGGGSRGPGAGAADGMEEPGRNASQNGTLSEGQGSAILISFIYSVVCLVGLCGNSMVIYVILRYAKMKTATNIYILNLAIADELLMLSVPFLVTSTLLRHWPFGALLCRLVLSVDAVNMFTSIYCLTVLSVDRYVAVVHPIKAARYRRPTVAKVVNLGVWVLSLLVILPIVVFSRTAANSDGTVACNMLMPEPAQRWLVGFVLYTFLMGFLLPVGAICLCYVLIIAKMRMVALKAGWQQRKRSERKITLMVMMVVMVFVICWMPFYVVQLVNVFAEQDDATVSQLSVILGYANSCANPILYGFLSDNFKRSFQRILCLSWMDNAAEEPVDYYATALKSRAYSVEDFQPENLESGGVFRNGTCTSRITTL
Test [5] deals with Somatostatin receptor type 4 (Homo sapiens, UniProt P31391). In words: Displacement of [125I]-[Leu8, DTrp22, Tyr25]SRIF-28 from human cloned sst4 receptor expressed in CCL39 cells. The format is cell-based.
Sequence of Somatostatin receptor type 4 (P31391 whole entry): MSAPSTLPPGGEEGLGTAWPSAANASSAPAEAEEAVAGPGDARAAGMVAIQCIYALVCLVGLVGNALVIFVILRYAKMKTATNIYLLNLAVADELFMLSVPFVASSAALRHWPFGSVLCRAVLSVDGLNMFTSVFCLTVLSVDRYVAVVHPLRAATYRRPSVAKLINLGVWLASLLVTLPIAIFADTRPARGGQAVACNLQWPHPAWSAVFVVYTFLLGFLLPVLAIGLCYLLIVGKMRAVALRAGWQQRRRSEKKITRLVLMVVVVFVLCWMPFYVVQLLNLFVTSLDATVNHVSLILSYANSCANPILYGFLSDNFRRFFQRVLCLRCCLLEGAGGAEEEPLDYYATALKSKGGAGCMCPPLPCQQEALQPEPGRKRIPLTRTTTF

The term IC50 denotes the concentration needed to halve the response being measured. Higher therefore signals lower potency.

Consider `CC(=O)N[C@@H]1CSSC[C@@H](C(=O)O)NC(=O)[C@H](Cc2ccccc2)NC(=O)[C@H]([C@@H](C)O)NC(=O)[C@H](CCCCN)NC(=O)[C@@H](Cc2c[nH]c3ccccc23)NC(=O)[C@H](Cc2ccccc2)NC(=O)[C@H](Cc2ccccc2)NC1=O`, for which the IC50 in test [1] is 19 nM; in test [2], 9.1 nM; in test [3], 8 nM; in test [4], 16 nM; in test [5], 0.7 nM.
Take `CC(=O)N[C@@H]1SS[C@H](C(=O)O)NC(=O)[C@H](Cc2ccccc2)NC(=O)[C@H]([C@@H](C)O)NC(=O)[C@H](CCCCN)NC(=O)[C@@H](Cc2c[nH]c3ccccc23)NC(=O)[C@H](Cc2ccccc2)NC(=O)[C@H](Cc2ccccc2)NC1=O`: the IC50 was 19 nM in test [1]; 57 nM in test [2]; 34 nM in test [3]; 302 nM in test [4]; 1.6 nM in test [5].
The corresponding values for `CC(=O)N[C@@H]1CSS[C@@H](C(=O)O)NC(=O)[C@H](Cc2ccccc2)NC(=O)[C@H]([C@@H](C)O)NC(=O)[C@H](CCCCN)NC(=O)[C@@H](Cc2c[nH]c3ccccc23)NC(=O)[C@H](Cc2ccccc2)NC(=O)[C@H](Cc2ccccc2)NC1=O` are 36 nM, 17 nM, 4.8 nM, greater than 1000 nM and 3 nM.
The corresponding values for `C[C@@H](O)[C@@H]1NC(=O)[C@H](CCCCN)NC(=O)[C@@H](Cc2c[nH]c3ccccc23)NC(=O)[C@H](Cc2ccccc2)NC(=O)[C@H](Cc2ccccc2)NC(=O)[C@H](N)CSSC[C@H](C(=O)O)NC(=O)[C@H](Cc2ccccc2)NC1=O` are 6.3 nM, 8.7 nM, 11 nM, greater than 1000 nM and 2.6 nM.
Turning to `CC(=O)N[C@H]1SSC[C@H](C(=O)O)NC(=O)[C@H](Cc2ccccc2)NC(=O)[C@H]([C@@H](C)O)NC(=O)[C@H](CCCCN)NC(=O)[C@@H](Cc2c[nH]c3ccccc23)NC(=O)[C@H](Cc2ccccc2)NC(=O)[C@H](Cc2ccccc2)NC1=O`, the IC50 is 28 nM in test [1]; 50 nM in test [2]; 13 nM in test [3]; greater than 1000 nM in test [4]; 5 nM in test [5].
Regarding `C[C@@H](O)[C@@H]1NC(=O)[C@H](CCCCN)NC(=O)[C@@H](Cc2c[nH]c3ccccc23)NC(=O)[C@H](Cc2ccccc2)NC(=O)[C@H](Cc2ccccc2)NC(=O)[C@@H](N)CSSC[C@H](C(=O)O)NC(=O)[C@H](Cc2ccccc2)NC1=O`, the IC50 in test [1] was 18.5 nM; in test [2], 27 nM; in test [3] it was 18 nM; in test [4], greater than 1000 nM; in test [5], 8.2 nM.
Turning to `CC(=O)N[C@@H]1CSS[C@H](C(=O)O)NC(=O)[C@H](Cc2ccccc2)NC(=O)[C@H]([C@@H](C)O)NC(=O)[C@H](CCCCN)NC(=O)[C@@H](Cc2c[nH]c3ccccc23)NC(=O)[C@H](Cc2ccccc2)NC(=O)[C@H](Cc2ccccc2)NC1=O`, the IC50 worked out at 30 nM in test [1]; 51 nM in test [2]; 18.5 nM in test [3]; 540 nM in test [4]; 1.5 nM in test [5].
The corresponding values for `CC(=O)N[C@H]1CSSC[C@H](C(=O)O)NC(=O)[C@H](Cc2ccccc2)NC(=O)[C@H]([C@@H](C)O)NC(=O)[C@H](CCCCN)NC(=O)[C@@H](Cc2c[nH]c3ccccc23)NC(=O)[C@H](Cc2ccccc2)NC(=O)[C@H](Cc2ccccc2)NC1=O` are 12 nM, 11 nM, 4.9 nM, greater than 1000 nM and 4.5 nM.
The corresponding values for `CC(=O)N[C@H]1CCSSC[C@@H](C(=O)O)NC(=O)[C@H](Cc2ccccc2)NC(=O)[C@H]([C@@H](C)O)NC(=O)[C@H](CCCCN)NC(=O)[C@@H](Cc2c[nH]c3ccccc23)NC(=O)[C@H](Cc2ccccc2)NC(=O)[C@H](Cc2ccccc2)NC1=O` are 38 nM, 28 nM, 6.5 nM, 96 nM and 0.9 nM.
For the compound `CC(=O)N[C@@H]1CCSSC[C@@H](C(=O)O)NC(=O)[C@H](Cc2ccccc2)NC(=O)[C@H]([C@@H](C)O)NC(=O)[C@H](CCCCN)NC(=O)[C@@H](Cc2c[nH]c3ccccc23)NC(=O)[C@H](Cc2ccccc2)NC(=O)[C@H](Cc2ccccc2)NC1=O`, the IC50 in test [1] stood at 69 nM; in test [2] it was 90 nM; in test [3] it was 40 nM; in test [4], 218 nM; in test [5], 1.4 nM.
The corresponding values for `CC(=O)N[C@H]1CSS[C@H](C(=O)O)NC(=O)[C@H](Cc2ccccc2)NC(=O)[C@H]([C@@H](C)O)NC(=O)[C@H](CCCCN)NC(=O)[C@@H](Cc2c[nH]c3ccccc23)NC(=O)[C@H](Cc2ccccc2)NC(=O)[C@H](Cc2ccccc2)NC1=O` are 20 nM, 50 nM, 41 nM, 358 nM and 2 nM.
The corresponding values for `CC(=O)N[C@H]1CSSC[C@@H](C(=O)O)NC(=O)[C@H](Cc2ccccc2)NC(=O)[C@H]([C@@H](C)O)NC(=O)[C@H](CCCCN)NC(=O)[C@@H](Cc2c[nH]c3ccccc23)NC(=O)[C@H](Cc2ccccc2)NC(=O)[C@H](Cc2ccccc2)NC1=O` are 7.1 nM, 26 nM, 49 nM, 22 nM and 1.3 nM.
Regarding `CC(=O)N[C@@H]1SSC[C@H](C(=O)O)NC(=O)[C@H](Cc2ccccc2)NC(=O)[C@H]([C@@H](C)O)NC(=O)[C@H](CCCCN)NC(=O)[C@@H](Cc2c[nH]c3ccccc23)NC(=O)[C@H](Cc2ccccc2)NC(=O)[C@H](Cc2ccccc2)NC1=O`, the IC50 is 69 nM in test [1]; 50 nM in test [2]; 11 nM in test [3]; greater than 1000 nM in test [4]; 4.4 nM in test [5].
Take `CC(=O)N[C@@H]1SSC[C@@H](C(=O)O)NC(=O)[C@H](Cc2ccccc2)NC(=O)[C@H]([C@@H](C)O)NC(=O)[C@H](CCCCN)NC(=O)[C@@H](Cc2c[nH]c3ccccc23)NC(=O)[C@H](Cc2ccccc2)NC(=O)[C@H](Cc2ccccc2)NC1=O`: the IC50 in test [1] came out at 6 nM; in test [2], 9 nM; in test [3], 33 nM; in test [4], 79 nM; in test [5], 1.9 nM.
The corresponding values for `CC(=O)N[C@H]1SS[C@H](C(=O)O)NC(=O)[C@H](Cc2ccccc2)NC(=O)[C@H]([C@@H](C)O)NC(=O)[C@H](CCCCN)NC(=O)[C@@H](Cc2c[nH]c3ccccc23)NC(=O)[C@H](Cc2ccccc2)NC(=O)[C@H](Cc2ccccc2)NC1=O` are 45 nM, 107 nM, 109 nM, greater than 1000 nM and 2.7 nM.
The corresponding values for `CC(=O)N[C@@H]1CSSC[C@H](C(=O)O)NC(=O)[C@H](Cc2ccccc2)NC(=O)[C@H]([C@@H](C)O)NC(=O)[C@H](CCCCN)NC(=O)[C@@H](Cc2c[nH]c3ccccc23)NC(=O)[C@H](Cc2ccccc2)NC(=O)[C@H](Cc2ccccc2)NC1=O` are 15 nM, 7.4 nM, 9 nM, greater than 1000 nM and 3.25 nM.
The corresponding values for `CC(=O)N[C@H]1SS[C@@H](C(=O)O)NC(=O)[C@H](Cc2ccccc2)NC(=O)[C@H]([C@@H](C)O)NC(=O)[C@H](CCCCN)NC(=O)[C@@H](Cc2c[nH]c3ccccc23)NC(=O)[C@H](Cc2ccccc2)NC(=O)[C@H](Cc2ccccc2)NC1=O` are 31 nM, 21 nM, 13 nM, greater than 1000 nM and 2.2 nM.
In the case of `CC(=O)N[C@@H]1SS[C@@H](C(=O)O)NC(=O)[C@H](Cc2ccccc2)NC(=O)[C@H]([C@@H](C)O)NC(=O)[C@H](CCCCN)NC(=O)[C@@H](Cc2c[nH]c3ccccc23)NC(=O)[C@H](Cc2ccccc2)NC(=O)[C@H](Cc2ccccc2)NC1=O`, the IC50 in test [1] is 50 nM; in test [2] it was 60 nM; in test [3], 3.9 nM; in test [4], greater than 1000 nM; in test [5], 2.6 nM.
For `CC(=O)N[C@H]1SSC[C@@H](C(=O)O)NC(=O)[C@H](Cc2ccccc2)NC(=O)[C@H]([C@@H](C)O)NC(=O)[C@H](CCCCN)NC(=O)[C@@H](Cc2c[nH]c3ccccc23)NC(=O)[C@H](Cc2ccccc2)NC(=O)[C@H](Cc2ccccc2)NC1=O`, the IC50 in test [1] is 14 nM; in test [2], 46 nM; in test [3] it was 42 nM; in test [4] it was 416 nM; in test [5], 3.1 nM.
For the compound `CC(=O)N[C@H]1CSS[C@@H](C(=O)O)NC(=O)[C@H](Cc2ccccc2)NC(=O)[C@H]([C@@H](C)O)NC(=O)[C@H](CCCCN)NC(=O)[C@@H](Cc2c[nH]c3ccccc23)NC(=O)[C@H](Cc2ccccc2)NC(=O)[C@H](Cc2ccccc2)NC1=O`, the IC50 in test [1] is 53 nM; in test [2], 82 nM; in test [3], 5.4 nM; in test [4] it was greater than 1000 nM; in test [5] it was 6 nM.
As to `C[C@@H](O)[C@@H]1NC(=O)[C@H](CCCCN)NC(=O)[C@@H](Cc2c[nH]c3ccccc23)NC(=O)[C@H](Cc2ccccc2)NC(=O)[C@H](Cc2ccccc2)NC(=O)C(N)CSSC[C@@H](C(=O)O)NC(=O)[C@H](Cc2ccccc2)NC1=O` (single isomer, unassigned), the IC50 in test [1] stood at 4.5 nM; in test [2], 9.5 nM; in test [3], 14.5 nM; in test [4], 14 nM; in test [5], 1 nM.
